pIC50: −log10 of the molar value.
Columns and labels:
[1] = target: T1, human orexin-2 receptor (hOX2R) (Homo sapiens, UniProt O43614); assay: FLIPR Ca2+ Flux Assay, CHO cells expressing hOX2R; assay type: cell-based; conditions: agonist 70 pM Ala-6,12 orexin-A
T1 construct: expressed in transfected cells; host or cells: Chinese hamster ovary (CHO) cells, grown under G418 selection
T1 sequence (O43614 1-444): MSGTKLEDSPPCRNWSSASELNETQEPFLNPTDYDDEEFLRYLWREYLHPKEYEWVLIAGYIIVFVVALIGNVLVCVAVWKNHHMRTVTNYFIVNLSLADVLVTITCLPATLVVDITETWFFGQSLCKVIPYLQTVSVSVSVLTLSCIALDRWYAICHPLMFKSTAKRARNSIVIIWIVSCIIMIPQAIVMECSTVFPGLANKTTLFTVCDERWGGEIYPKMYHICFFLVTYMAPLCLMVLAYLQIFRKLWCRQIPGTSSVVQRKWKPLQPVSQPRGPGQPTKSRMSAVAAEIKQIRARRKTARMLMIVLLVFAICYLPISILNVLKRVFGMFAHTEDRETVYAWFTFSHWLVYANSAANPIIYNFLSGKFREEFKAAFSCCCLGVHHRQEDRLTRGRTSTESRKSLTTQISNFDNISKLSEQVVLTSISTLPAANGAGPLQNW

[2] = target: T2, human orexin-1 receptor (hOX1R) (Homo sapiens, UniProt O43613); assay: FLIPR Ca2+ Flux Assay, CHO cells expressing hOX1R; assay type: cell-based; conditions: agonist 70 pM Ala-6,12 orexin-A
T2 construct: expressed in transfected cells; host or cells: Chinese hamster ovary (CHO) cells, grown under G418 selection
T2 sequence (O43613 1-425): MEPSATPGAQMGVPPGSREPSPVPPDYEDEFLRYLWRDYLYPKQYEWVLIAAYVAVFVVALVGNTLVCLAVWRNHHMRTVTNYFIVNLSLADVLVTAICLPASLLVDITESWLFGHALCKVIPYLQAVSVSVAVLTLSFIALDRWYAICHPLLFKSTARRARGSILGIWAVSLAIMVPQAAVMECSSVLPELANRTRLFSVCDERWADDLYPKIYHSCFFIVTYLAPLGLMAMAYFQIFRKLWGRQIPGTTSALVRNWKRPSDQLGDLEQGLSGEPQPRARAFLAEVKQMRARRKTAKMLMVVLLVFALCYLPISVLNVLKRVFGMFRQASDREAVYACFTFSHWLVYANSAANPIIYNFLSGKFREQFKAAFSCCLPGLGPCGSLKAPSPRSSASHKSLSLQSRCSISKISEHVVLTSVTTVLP

SMILES	pIC50 [1]	pIC50 [2]
COc1ccnc(O[C@@H]2CC[C@@H](C)N(C(=O)c3ccccc3-n3nccn3)C2)c1C(C)(C)O (single isomer, unassigned) [Example 28]	7.10	7.03
C[C@@H]1CC[C@@H](Oc2ncccc2C(C)(C)O)CN1C(=O)c1cc(C#N)ccc1-n1nccn1 [Example 7, 3-{[(2R,5R)-5-{[3-(1-hydroxy-1-methylethyl)pyridin-2-yl]oxy}-2-methylpiperidin-1-yl]carbonyl}-4-(2H-1,2,3-triazol-2-yl)benzonitrile]	7.06	6.38
C[C@@H]1CC[C@@H](Oc2ncccc2C(C)(C)O)CN1C(=O)c1ccccc1C1CCC1 [Example 9, 2-[2-({(3R,6R)-1-[(2-cyclobutylphenyl)carbonyl]-6-methylpiperidin-3-yl}oxy)pyridin-3-yl]propan-2-ol]	7.27	7.05
C[C@@H]1CC[C@@H](Oc2ncccc2CO)CN1C(=O)c1ccccc1-n1nccn1 [Example 39, (2-{[(3R,6R)-6-Methyl-1-{[2-(2H-1,2,3-triazol-2-yl)phenyl]carbonyl}piperidin-3-yl]oxy}pyridin-3-yl)methanol]	7.74	6.03
CCc1ccnc(O[C@@H]2CC[C@@H](C)N(C(=O)c3ccccc3-n3nccn3)C2)c1CO [Example 40, (4-Ethyl-2-{[(3R,6R)-6-methyl-1-{[2-(2H-1,2,3-triazol-2-yl)phenyl]carbonyl}piperidin-3-yl]oxy}pyridin-3-yl)methanol]	7.77	6.99

Further compounds by rising pIC50 [1], results first:

pIC50 [1]	pIC50 [2]	SMILES
7.31	6.32	C[C@@H]1CC[C@@H](Oc2ncccc2C(C)(C)O)CN1C(=O)c1ccc(F)cc1C1CC1 [Example 14, 2-[2-({(3R,6R)-1-[(2-cyclopropyl-4-fluorophenyl)carbonyl]-6-methylpiperidin-3-yl}oxy)pyridin-3-yl]propan-2-ol]
7.47	5.93	COc1ccnc(O[C@@H]2CC[C@@H](C)N(C(=O)c3ccccc3-n3nccn3)C2)c1CO [Example 46, (4-Methoxy-2-{[(3R,6R)-6-methyl-1-{[2-(2H-1,2,3-triazol-2-yl)phenyl]carbonyl}piperidin-3-yl]oxy}pyridin-3-yl)methanol]

Source: patent US20160102073A1, “2-HYDROXYMETHYL-SUBSTITUTED OREXIN RECEPTOR ANTAGONISTS” (MERCK SHARP & DOHME CORP., priority 2013, published 2016)
